“And” between values parts separate entries of the source, which are not always exact repeats. Equal entries are not always repeated.
molecular target: T1, Alpha-1A adrenergic receptor (Canis lupus familiaris, UniProt O77621)
T1 sequence (O77621 whole entry): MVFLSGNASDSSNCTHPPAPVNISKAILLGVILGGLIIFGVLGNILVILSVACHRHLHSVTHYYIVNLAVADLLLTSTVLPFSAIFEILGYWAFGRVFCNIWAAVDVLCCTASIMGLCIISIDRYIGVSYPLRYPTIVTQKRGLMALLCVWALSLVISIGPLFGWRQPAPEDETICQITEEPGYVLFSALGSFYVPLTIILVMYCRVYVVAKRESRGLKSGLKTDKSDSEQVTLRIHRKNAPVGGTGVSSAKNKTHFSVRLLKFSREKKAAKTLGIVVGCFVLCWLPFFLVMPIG

Row | SMILES | Ki
1 | Clc1cccc(Cl)c1N=C1NCCN1 [2-(2,6-dichloroanilino)-2-imidazoline] | 37 nM
2 | CNCC(O)c1ccc(O)c(O)c1 (stereo not drawn) [EPINEPHRINE] | 110 nM and 30 nM
3 | NCC(O)c1ccc(O)c(O)c1 (stereo not drawn) [Noradrenaline,(+)] | 178 nM and 67 nM

More lines, now with the values ahead:

Row | Ki | SMILES
4 | 901 nM and 213 nM | CNC[C@H](O)c1cccc(O)c1 [PHENYLEPHRINE]
5 | 2.55 nM and 1.27 nM | Cc1ccc(N(CC2=NCCN2)c2cccc(O)c2)cc1 [SMR000059054]
6 | 33 nM and 9 nM | Cc1cc(C(C)(C)C)c(O)c(C)c1CC1=NCCN1 [SMR000059324]
7 | 0.02 nM and 0.01 nM | COc1cc2nc(N3CCN(C(=O)c4ccco4)CC3)nc(N)c2cc1OC [[3H]-Minipress]
8 | 32 nM and 13.4 nM | COC(=O)[C@@H]1[C@H]2C[C@H]3c4[nH]c5ccccc5c4CCN3C[C@@H]2CC[C@@H]1O [yohimbic acid methyl ester]

Source: BindingDB's records for PubMed 2885412 (Unwersity of Misscuri, 1987)
